According to US8158621B2, “Methods of treating or preventing autoimmune diseases with 2,4-pyrimidinediamine compounds” (Rigel Pharmaceuticals, Inc., priority 2002, dated 2012):
Where “and” joins values, the source holds several entries; their conditions need not be identical. Identical values can stand only once. Like-named read-outs stand apart in the source and are kept apart here.

Assays:
[1] = target: T1, Syk kinase (Homo sapiens, UniProt P43405); assay: Syk kinase biochemical fluorescence polarization assay; conditions: isolated Syk kinase, fluorescence polarization, 4 uM ATP
T1 construct: purchased Upstate, Lake Placid NY

[2] = system: Primary human B-cells; assay: Primary B-cell activation (α-IgM, CD69 upregulation); assay type: cell-based; conditions: read-out: 1° B-Cell CD69 IC50
Description: Primary human B-cells were isolated from buffy coat, the white cell layer that forms between the red cells and the […] when anti-coagulated blood is centrifuged, or from fresh blood using CD19-Dynal® beads and a FACS. Buffy coat was obtained from the Stanford Medical School Blood Centre, prepared on the same day by the blood bank, stored and transported cold (with ice). The buffy coat (approx 35 mL) was placed in a 500 mL conical sterile centrifuge pot and cooled on ice, then diluted with cold PBS containing 0.2% BSA (Sigma: A7638) and sodium citrate (0.1%, Sigma: S-5570) (P—B—C) to a total volume of 200 mL and mixed gently. Fresh blood was collected from donors in 10 mL vacutainers containing heparin (1 vacutainer collects approximately 8.5 mL blood). The blood was cooled on ice, transferred into 50 mL falcon tubes (20 mL/tube) or a 500 mL conical sterile centrifuge pot, and diluted with an equal volume P—B—C.
25 mL diluted blood or buffy coat was layered onto 15 mL cold ficoll and placed back on ice. The ficoll layered blood was centrifuged (Beckman GS-6R) for 45 minutes at 2000 rpm, 4° C. to separate the Peripheral Blood Mononuclear Cells (PBMC) from the Red Blood Cells (RBC) and granulocytes. The top aqueous layer was then aspirated until 1 inch above the PBMC layer. The PBMCs were transferred from every 2 ficoll tubes into one clean 50 mL falcon tube (=approx 10 mL/tube). The transferred PBMCs were diluted 5× with icecold PBS with 0.2% BSA (P—B) and centrifuged for 20 min at 1400 rpm and 4° C. The supernatant (this may be cloudy) was then aspirated and the PBMCs resuspended into 25 mL P—B and the cells counted (using a 1:5 dilution) and kept on ice.
The cells were then positively selected using anti-CD 19 antibody coupled to magnetic beads (Dynal®) as per manufacturer's instructions. The approximate required amount of CD19-Dynal® beads (CD19-coated dyna beads M-450 (pabB), Dynal®) was calculated by estimating the number of B-cells as 5% of PBMCs counted and adding approximately10 beads per cell from the bead stock (4×10^8 beads/mL). The CD19-Dynal® beads were washed 2× in P—B in a 5 mL tube using the Dynal® magnet, then added into the suspended PBMCs. This mixture was then passed through the Dynal® magnet and washed several times to separate the bead-bound cells.
After separation, the beads and antibody were removed using Dynal® CD19-DETACHaBEAD® for 45 min at 30° C. Yield is typically 2×10^7 B-cells per buffy coat. B-cells were washed and resuspended as 1E6 cells/mL in RPMI1640+10% FBS+Penicillin/[…]+1 ng/mL IFNα8. Cells were rested overnight at 37° C. and 5% CO2.
The following day, cells were washed and resuspended in RPMI+2.5% FBS to 1×10^6 cells/mL. Cells were then aliquoted into a V-bottom 96-well plate (Corning) at 65 uL cells per well. By robot, 65 uL of a 2× compound was added to the cells with final concentration of DMSO at 0.2%, and incubated for 1 hr at 37° C. Cells were then stimulated with 20 uL 7.5× α-IgM from Jackson laboratories (final 5 ug/mL) for 24 hrs. At day 3, the cells were spun down and stained for CD69 and analyzed by FACS gated on the live cells (by light scatter).
Varied concentrations of compound were compared to solvent only to determine the inhibition of B-cell activation IC50 of each compound.

[3] = system: Human Jurkat T-cells (clone N); assay: Jurkat T-cell activation (anti-TCR, CD69 upregulation); assay type: cell-based
Summary of the method: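 Jurkat cells in RPMI + 5% FBS preincubated with compound 1 h at 37 °C, then stimulated with anti-TCR C305 at 500 ng/ml for 20 h. CD69 surface expression stained with anti-CD69-APC and read by flow cytometry; IC50 versus solvent-only control.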

[4] = system: cultured human mast cells (CHMC); assay: CHMC high cell density IgE activation: LTC4; assay type: cell-based
Description: (§1) After sensitizing, cells are counted, pelleted (1000 rpm, 5-10 minutes), and resuspended at 1-2 ×10^6 cells/ml in MT buffer. Add 100 ul of cell suspension to each well and 100 ul of compound dilutions. The final vehicle concentration is 0.5% DMSO. Incubate at 37° C. (5% CO2) for 1 hour. After 1 hour of compound treatment, stimulate cells with 6× anti-IgE. Mix wells with the cells and allow plates to incubate at 37° C. (5% CO2) for one hour. After 1 hour incubation, pellet cells (10 minutes, 1000 RPM) and collect 200 ul per well of the supernatant, being careful not to disturb pellet. Place the supernatant plate on ice. During the 7-hour step (see next) perform tryptase assay on supernatant that had been diluted 1:500. Resuspend cell pellet in 240 ul of CM media containing 0.5% DMSO and corresponding concentration of compound. Incubate CHMC cells for 7 hours at 37° C. (5% CO2). After incubation, pellet cells (1000 RPM, 10 minutes) and collect 225 ul per well and place in −80° C. until ready to perform ELISAS. ELISAS are performed on appropriately diluted samples (determined empirically for each donor cell population so that the sample measurement falls within the standard curve) following the supplier's instructions.

[5] = system: cultured human mast cells (CHMC); assay: CHMC high cell density IgE activation: hexos; assay type: cell-based
Description: as §1
Add 50 uL of BMMC cell supernatant (see above) to the hexoseaminidase substrate, place at 37° C. for 30 minutes and read the plate at 5, 10, 15, and 30 minutes on a spectrophotometer.

[6] = system: cultured human mast cells (CHMC); assay: CHMC high cell density IgE activation: TNFalpha; assay type: cell-based; conditions: read-out: CHMC high density TNF-alpha
Description: as §1

[7] = system: cultured human mast cells (CHMC); assay: CHMC low cell density IgE activation: tryptase assay; assay type: cell-based
Summary of the method: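 Low-density CHMC assay: donor-adjusted 1000-1500 cells/well, MT buffer, 1 hr 37° C preincubation; anti-IgE stimulus 30 min 37° C versus MT-only controls; supernatant tryptase by substrate, 30 min RT.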

[8] = system: cultured human mast cells (CHMC); assay: CHMC high cell density IgE activation: histamine; assay type: cell-based
Description: as §1

[9] = system: cultured human mast cells (CHMC); assay: CHMC high cell density IgE activation: tryptase; assay type: cell-based
Description: as §1

[10] = system: cultured human mast cells (CHMC); assay: CHMC low cell density ionomycin activation: tryptase assay; assay type: cell-based
[11] = system: Primary T-cells; assay: Primary T-cell cytokine production (αCD3/αCD28): IL-2; assay type: cell-based, human; conditions: read-out: 1° T-Cell IL2 IC50
Description: 2E8-4E8 PBMC or proliferating T cells grown in rIL-2 from healthy human donors were suspended in PBS were spun down (1500 rpm, 8-10 minutes) and resuspended in 100 ml RPMI Complete media (1% Pen-Strep, 1% L-Glutamine, 10 mM HEPES). The cells were plated in T175 flasks (37° C., 5% CO2) and monocytes were allowed to adhere for 2-3 hours. After monocyte attachment, non-adherent cells were harvested, counted by hemocytometer, washed several times with PBS then resuspended in Yssels Complete Media (Modified IMDM Media with 1% Human AB Serum, 1% Pen-Strep, 1% L-Glutamine, 10 mM HEPES) at […]. 90 uL of the cell dilution were then added to compounds diluted to 2× in Yssel's media and incubated for 30 minutes at 37° C. (5% CO2). After this preincubation step the compound/cell mixture was transferred to stimulation plates, as described below.
Stimulation plates were prepared by coating 96 well plates with 5 μg/ml αCD3 (BD PharMingen, Catalog #555336)+10 μg/ml αCD28 (Beckman Coulter, Catalog #IM1376) in PBS (no Ca^2+/Mg^2+) at 37° C. (5% CO2) for at 3-5 hours. After incubation with the stimulation antibodies, the cocktail was removed and the plates washed 3 times with PBS prior to addition of the primary T cell/compound mixture.
The compound/cell mixture was transferred to the stimulation plates and incubated for 18 hr at 37° C. (5% CO2). After the cell stimulation, ˜150 μl supernatant were transferred from each well into 96-well filter plates (Coming PVDF Filter Plates) spun down (2000 rpm, 2-3 minutes) and either used immediately for ELISA or LUMINEX measurements or frozen down at −80° C. for future use.
IL-2 ELISAs were performed using the Quantikine Human IL-2 ELISA kit (R&D Systems, Catalog # D2050) as described by the manufacturer and absorption was measured on a spectrophotometer at 450 nm wavelength. Blank values were substracted and absorbances were converted to pg/mL based on the standard curve.
Luminex immunoassay multiplexing for TNF, IL-2, GMSCF, IL-4 and IFNg was performed essentially as described by the manufacturer (Upstate Biotechnology). Essentially 50 uL of sample was diluted into 50 uL assay diluent and 50 uL incubation buffer, then incubated with 100 uL of the diluted detection antibody for 1 hr at RT in the dark. The filter plate was washed 2× in Wash Buffer, then incubated with 100 uL of the diluted secondary reagent (SAV-RPE) for 30 min at RT in the dark. Finally the plates were washed 3 times and bead identification and RPE fluorescent measured by the Luminex instrument.
Varied concentrations of compound were compared to solvent only to determine the inhibition of T-cell activation IC50 of each compound.

[12] = Mouse Reverse Passive Arthus reaction (RPA reaction); assay type: in vivo, C57BL/6 mice; conditions: oral, 200 mg/kg
Description: In this model system, test compounds are administered at several timepoints prior to administration of Abs and Ags. A solution of rabbit anti-OVA IgG (50 μg in 25 μl/mouse) is injected intradermally, and immediately following is an intravenous injection of chicken egg albumin (20 mg/kg of body weight) in a solution containing 1% Evans blue dye. The degree of edema and hemorrhage is measured in the dorsal skin of C57BL/6 mice using the Evan's Blue dye as an indicator of local tissue damage. Purified polyclonal rabbit IgG is used as a control.
Pretreatment time, in which the test compounds are administered prior to Ab/Ag challenge, depends on the pharmacokinetic (PK) properties of each individual compound. Four hours after induction of Arthus reaction, mice are euthanized, and tissues are harvested for assessment of edema.

[13] = system: IgE-induced degranulation of tissue mast cells; assay: Mouse model of passive cutaneous anaphylaxis (PCA); assay type: in vivo; conditions: positive controls
Description: This model provides a direct measure of IgE-induced degranulation of tissue mast cells. In this model, IgE primed animals are exposed to an allergen challenge, and the change in permeability of dermal vasculature that results from histamine release from mast cells is measured by change in the amount of dye leakage into surrounding tissue. Inhibition of mediator release by compounds that modulate mast cell degranulation is easily measured by extracting the dye from the tissue.
In the PCA assay mice are passively sensitized by intradermal injection with anti-dinitrophenol (DNP) IgE antibodies (Day −1). At predetermined times animals are treated with the test agent (Day 0). The modulatory effect of the agent on cutaneous mast cell degranulation is measured following intravenous injection of DNP conjugated to human serum albumin (HSA-DNP), together with Evans blue dye. The resulting cross-linking of the IgE receptor and subsequent mast cell degranulation-induced increase in vascular permeability is determined by measuring the amount of dye extravasation into the tissue. Dye is extracted from the tissue by formamide, and the absorbance of this extract is read at 620 nm.

[14] = Low Density CHMC, anti-IgE activation, tryptase release, read-out: CHMC anti-IgE Tryptase IC50
[15] = Low Density CHMC, ionomycin activation, tryptase release, read-out: CHMC Ionomycin Tryptase IC50

## COc1cc(Nc2ncc(F)c(Nc3ccc4c(c3)NC(=O)[C@H](C)O4)n2)cc(OC)c1 [Compound R908953]
[1]
  IC50: 17 nM
[2]
  IC50: 1980 nM

## CCOc1ccc(Nc2nc(Nc3ccc4c(c3)OCCO4)ncc2F)cc1 [Compound R926213]
[3]; Homo sapiens, Jurkat
  IC50: 8860 nM
[2]; Homo sapiens, B-cell
  IC50: 44000 nM

## CNC(=O)c1cc2cc(Nc3ncc(F)c(Nc4ccc5c(c4)OCCO5)n3)ccc2o1 [Compound R926496]
[4]
  IC50: 414 nM
[5]
  IC50: 429 nM
[3]
  IC50: 4390 nM
[6]
  IC50: 622 nM
[7]; [14]
  IC50: 571 nM
[8]
  IC50: 809 nM
[9]
  IC50: 533 nM
[10]; [15]
  IC50: > 10000 nM

## COC(=O)c1cc2cc(Nc3ncc(F)c(Nc4ccc(OC(C)C)cc4)n3)ccc2o1 [Compound R926704]
[4]
  IC50: > 10000 nM
[5]
  IC50: > 2000 nM
[3]
  IC50: 9270 nM
[6]
  IC50: > 10000 nM
[7]; [14]
  IC50: 564 nM
[8]
  IC50: > 10000 nM
[9]
  IC50: > 10000 nM
[10]; [15]
  IC50: > 10000 nM

## CNC(=O)COc1cccc(Nc2ncc(F)c(Nc3ccc4cc[nH]c4c3)n2)c1 [Compound R926745]
[3]
  IC50: 1480 nM
[11]
  IC50: 1500 nM

## CC1(C)Oc2ccc(Nc3nc(Nc4ccc5cc[nH]c5c4)ncc3F)cc2NC1=O [Compound R926982]
[7]; low cell density, read-out: CHMC anti-IgE Tryptase
  IC50: 120 nM
[1]
  IC50: 28 nM
[10]; low cell density, read-out: CHMC Ionomycin Tryptase
  IC50: > 10000 nM
[2]
  IC50: 394 nM

## Oc1cccc(Nc2nc(Nc3ccc(OCc4nc(-c5ccccc5)no4)cc3)ncc2F)c1 [Compound R935134]
[3]
  IC50: > 10000 nM
[11]
  IC50: 36100 nM

## Cc1noc(COc2ccc(Nc3nc(Nc4ccc(OC(C)C)cc4)ncc3F)cc2)n1 [Compound R935144]
[3]
  IC50: > 10000 nM
[11]
  IC50: 13300 nM

## CNC(=O)COc1cccc(Nc2ncc(F)c(Nc3ccc4c(c3)NC(=O)C(C)(C)O4)n2)c1 [Compound R940323]
[12]; 60 minutes prior to challenge
  inhibition of edema formation: 32.4%
[12]; pretreatment time 0.5 hrs
  % inhibition to vehicle control Edema Size ± SEM: 5.5 ± 9.3%
[12]; pretreatment time 1 hrs
  % inhibition to vehicle control Edema Size ± SEM: 32.4 ± 13.0% and 32.4%
[12]; pretreatment time 2 hrs
  % inhibition to vehicle control Edema Size ± SEM: 26.9 ± 11.2%
[3]
  IC50: 557 nM
[2]
  IC50: 110 nM

## CN(C)CCOC(c1ccccc1)c1ccccc1 [diphenhydramine, reference compound]
[13]
  PCA response: inhibit the PCA response
